Measurements: ChEMBL document CHEMBL1130294, “Subsite requirements for peptide aldehyde inhibitors of human calpain I” (Bioorg Med Chem Lett, 1997)
Residues, ends and D or L forms follow the SMILES beside them. *: point of attachment. Cbz = O=C(OCc1ccccc1)*; tBu = CC(C)(C)*

What follows are compounds tested against T1, Calpain-1 catalytic subunit (Homo sapiens, UniProt P07384) (assay: Inhibitory activity evaluated against recombinant human calpain 1).
T1 sequence (P07384 whole entry): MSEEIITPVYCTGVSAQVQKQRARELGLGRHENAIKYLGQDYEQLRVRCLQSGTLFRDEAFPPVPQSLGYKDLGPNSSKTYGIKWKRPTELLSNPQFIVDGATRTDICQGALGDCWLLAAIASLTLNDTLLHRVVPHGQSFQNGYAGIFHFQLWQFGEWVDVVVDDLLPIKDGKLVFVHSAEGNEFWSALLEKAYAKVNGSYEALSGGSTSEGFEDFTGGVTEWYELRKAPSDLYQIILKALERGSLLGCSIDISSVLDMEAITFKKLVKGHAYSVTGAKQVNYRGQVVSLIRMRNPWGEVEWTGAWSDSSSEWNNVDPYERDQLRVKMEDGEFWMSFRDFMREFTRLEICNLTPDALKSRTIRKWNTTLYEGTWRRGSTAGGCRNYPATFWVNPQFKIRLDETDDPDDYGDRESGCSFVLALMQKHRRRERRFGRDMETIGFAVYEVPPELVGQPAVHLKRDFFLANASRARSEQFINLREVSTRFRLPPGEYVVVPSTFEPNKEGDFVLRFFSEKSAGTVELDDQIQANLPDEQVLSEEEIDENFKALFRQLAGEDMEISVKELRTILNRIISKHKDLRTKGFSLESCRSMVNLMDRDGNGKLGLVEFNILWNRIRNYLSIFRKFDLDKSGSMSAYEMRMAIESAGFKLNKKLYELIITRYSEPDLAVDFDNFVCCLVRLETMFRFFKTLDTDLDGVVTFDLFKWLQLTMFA

Row | IC50 | Compound
1 | 300 nM | CC(C)C[C@H](NC(=O)OCc1ccccc1)C(=O)NCC=O (Cbz-Leu-Gly-aldehyde)
2 | 37 nM | CC(=O)N[C@@H](COC(C)(C)C)C(=O)N[C@@H](CC(C)C)C(=O)N[C@H](C=O)CC(C)C (Ac-Ser(tBu)-Leu-Leu-aldehyde)
3 | 370 nM | CC(C)C[C@@H](C=O)NC(=O)[C@H](CCC(N)=O)NC(=O)OCc1ccccc1 (Cbz-Gln-Leu-aldehyde)
